Data taken from patent US20230355646A1, “AUTOPHAGY ACTIVATOR” (Resonac Corporation, priority 2020, published 2023).

Test system: ATG7 gene
Assay: ATG7 gene expression promoting effect in human senescent fibroblasts (quantitative real-time PCR)
Type: cell-based
Protocol: Normal human fibroblasts (NB1RGB, RIKEN BRC Cell Bank) were cultured until confluent in D-MEM medium (manufactured by Sigma-Aldrich) to which 10% fetal bovine serum (manufactured by MP Biomedicals) was added. Thereafter, the cells were treated with 250 μM aqueous hydrogen peroxide for 2 hours, and cultured for 24 hours in D-MEM medium to which fresh 10% fetal bovine serum was added. The treatment with aqueous hydrogen peroxide and the cell culture operation were repeated three times, and the obtained fibroblasts were used as senescent fibroblasts.
The prepared senescent fibroblasts were prepared at a seeding density of 10000 cells/cm^2 and cultured for 24 hours in D-MEM medium (manufactured by Sigma-Aldrich) to which 10% fetal bovine serum (manufactured by MP Biomedicals) was added. […]
Then, using Nucleospin (registered trademark) RNA kit (manufactured by Takara Bio Inc.), RNA was extracted from senescent fibroblasts or normal human fibroblasts in each example, and cDNA was synthesized from the obtained RNA. Next, using this cDNA as a template, by quantitative real-time PCR, the expression level of each gene was quantified using primers (manufactured by Takara Bio Inc.) specific to the LC3 gene, ATG5 gene, and ATG7 gene, respectively. […]

COc1ccc([C@@H]2CC(=O)c3c(O)cc(O[C@@H]4O[C@H](CO[C@@H]5O[C@@H](C)[C@H](O)[C@@H](O)[C@H]5O)[C@@H](O)[C@H](O)[C@H]4O)cc3O2)cc1O [Comparative Example 2, hesperidin]
Relative gene expression level ATG7 (10^−2% (V/V) methyl hesperidin or hesperidin, additional ingredient where in the example, 24 hours, Comparative Example 1 (DMSO) = 1.00): 0.76 | expression level of the ATG7 gene (in words) (compared to DMSO only of Comparative Example 1): more decreased
